Key:
Details in all cases: 48 h
CU-ACC2 [1] = assay: AC50 viability; higher = less potent
How it was run: (§1)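 For each of three adrenocortical carcinoma cell lines, 500–1,000 cells/well were placed in 5 µL medium in 1,536-well plates. A 23 nL volume of every library compound was added at 11 concentrations. Following 48 h, a 15-minute room-temperature CellTiter-Glo step preceded luminescence reading, with signals normalised per plate to vehicle and empty-well controls. AC50 and area under the curve were derived by curve fitting, retaining only inhibitory or non-responding curve classes.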

CU-ACC1 [2] = assay: AC50 viability; higher = less potent
How it was run: as §1

NCI-H295R [3] = assay: AC50 viability; higher = less potent
How it was run: as §1

CU-ACC2 [4] = assay: area under concentration-response curve (viability) (AUC (a.u.)); higher = less active
How it was run: as §1

CU-ACC1 [5] = assay: as above
How it was run: as §1

NCI-H295R [6] = assay: as above
How it was run: as §1

## CC1(C)CC(=O)c2c(C(F)(F)F)nn(-c3ccc(C(N)=O)c(NC4CCC(O)CC4)c3)c2C1 (stereo not given)
CU-ACC2 [1]
  AC50 viability: 0.295 µM
CU-ACC1 [2]
  AC50 viability: 1.05 µM
NCI-H295R [3]
  AC50 viability: 0.833 µM
CU-ACC2 [4]
  area under concentration-response curve: 416
CU-ACC1 [5]
  area under concentration-response curve: 359
NCI-H295R [6]
  area under concentration-response curve: 455

## COc1cc2c(cc1O)CCN[C@]21CS[C@@H]2c3c(OC(C)=O)c(C)c4c(c3[C@H](COC1=O)N1[C@@H]2[C@H]2c3c(cc(C)c(OC)c3O)C[C@@H]([C@@H]1O)N2C)OCO4
CU-ACC2 [1]
  AC50 viability: 0.0152 µM
CU-ACC1 [2]
  AC50 viability: 0.00855 µM
NCI-H295R [3]
  AC50 viability: 0.0152 µM
CU-ACC2 [4]
  area under concentration-response curve: 344
CU-ACC1 [5]
  area under concentration-response curve: 285
NCI-H295R [6]
  area under concentration-response curve: 315

## CC(C)(O)c1cc2nc(-c3cnc(N)nc3)nc(N3CCOCC3)c2s1
CU-ACC2 [1]
  AC50 viability: 2.63 µM
CU-ACC1 [2]
  AC50 viability: 1.32 µM
NCI-H295R [3]
  AC50 viability: 1.05 µM
CU-ACC2 [4]
  area under concentration-response curve: 379
CU-ACC1 [5]
  area under concentration-response curve: 434
NCI-H295R [6]
  area under concentration-response curve: 423

## C[C@@H]1CC[C@@]2(OC1)O[C@H]3C[C@H]4[C@@H]5C/C=C6/C[C@H](CC[C@]6(C)[C@H]5CC[C@]4(C)[C@H]3[C@@H]2C)O[C@@H]7O[C@H](CO)[C@@H](O[C@@H]8O[C@@H](C)[C@H](O)[C@@H](O)[C@H]8O)[C@H](O)[C@H]7O[C@@H]9O[C@@H](C)[C@H](O)[C@@H](O)[C@H]9O
CU-ACC2 [1]
  AC50 viability: 7.42 µM
CU-ACC1 [2]
  AC50 viability: 4.68 µM
NCI-H295R [3]
  AC50 viability: 1.18 µM
CU-ACC2 [4]
  area under concentration-response curve: 524
CU-ACC1 [5]
  area under concentration-response curve: 446
NCI-H295R [6]
  area under concentration-response curve: 386

## O=C(/C=C/c1cccc([S+](=O)([O-])Nc2ccccc2)c1)NO
CU-ACC2 [1]
  AC50 viability: 5.25 µM
CU-ACC1 [2]
  AC50 viability: 3.72 µM
NCI-H295R [3]
  AC50 viability: 3.72 µM
CU-ACC2 [4]
  area under concentration-response curve: 429
CU-ACC1 [5]
  area under concentration-response curve: 362
NCI-H295R [6]
  area under concentration-response curve: 404

## CO[C@H]1/C=C\C=C(\C)C(=O)NC2=CC(=O)C(NCCN(C)C)=C(C[C@@H](C)C[C@H](OC)[C@H](O)[C@@H](C)/C=C(/C)[C@@H]1OC(N)=O)C2=O
CU-ACC2 [1]
  AC50 viability: 0.833 µM
CU-ACC1 [2]
  AC50 viability: 1.66 µM
NCI-H295R [3]
  AC50 viability: 3.72 µM
CU-ACC2 [4]
  area under concentration-response curve: 460
CU-ACC1 [5]
  area under concentration-response curve: 335
NCI-H295R [6]
  area under concentration-response curve: 451

## O=C(CCCCCCC(=O)N/N=C/c1ccc(N(c2ccccc2)c2ccccc2)cc1)NO
CU-ACC2 [1]
  AC50 viability: 10.5 µM
CU-ACC1 [2]
  AC50 viability: 6.61 µM
NCI-H295R [3]
  AC50 viability: 1.18 µM
CU-ACC2 [4]
  area under concentration-response curve: 371
CU-ACC1 [5]
  area under concentration-response curve: 381
NCI-H295R [6]
  area under concentration-response curve: 382

## CC[S+](=O)([O-])c1cccc(-c2cc(C(=O)NC3CCN(C)CC3)c(C)c3[nH]c4ncc(C)cc4c23)c1
CU-ACC2 [1]
  AC50 viability: 10.5 µM
CU-ACC1 [2]
  AC50 viability: 37.2 µM
NCI-H295R [3]
  AC50 viability: 20.9 µM
CU-ACC2 [4]
  area under concentration-response curve: 543
CU-ACC1 [5]
  area under concentration-response curve: 500
NCI-H295R [6]
  area under concentration-response curve: 545

## COC(=O)c1ccc2c(c1)NC(=O)/C2=C(\Nc1ccc(N(C)C(=O)CN2CCN(C)CC2)cc1)c1ccccc1
CU-ACC2 [1]
  AC50 viability: 7.42 µM
CU-ACC1 [2]
  AC50 viability: 20.9 µM
NCI-H295R [3]
  AC50 viability: 8.33 µM
CU-ACC2 [4]
  area under concentration-response curve: 528
CU-ACC1 [5]
  area under concentration-response curve: 504
NCI-H295R [6]
  area under concentration-response curve: 483

## COC(=O)C/1=C(C)/N/C(=C(\C1C2=CC(=CC=C2)[N+]([O-])=O)C(=O)OCCCN3CCC(CC3)(C4=CC=CC=C4)C5=CC=CC=C5)C (stereo not given)
CU-ACC2 [1]
  AC50 viability: 16.6 µM
CU-ACC1 [2]
  AC50 viability: 13.2 µM
NCI-H295R [3]
  AC50 viability: 7.42 µM
CU-ACC2 [4]
  area under concentration-response curve: 374
CU-ACC1 [5]
  area under concentration-response curve: 426
NCI-H295R [6]
  area under concentration-response curve: 465

## CN(C)C[C@@H]1CC[N]2C=C(C3=C2C=CC=C3)C/4=C(/C(=O)NC4=O)C5=C[N](CCO1)C6=C5C=CC=C6
CU-ACC2 [1]
  AC50 viability: 8.33 µM
CU-ACC1 [2]
  AC50 viability: 14.8 µM
NCI-H295R [3]
  AC50 viability: 7.42 µM
CU-ACC2 [4]
  area under concentration-response curve: 389
CU-ACC1 [5]
  area under concentration-response curve: 292
NCI-H295R [6]
  area under concentration-response curve: 368

## C=C1CCC2[C@](C)(CO)C(O)CC[C@]2(C)C1C/C=C1/C(=O)OCC1O (stereo not given in full)
CU-ACC2 [1]
  AC50 viability: 11.8 µM
CU-ACC1 [2]
  AC50 viability: 18.6 µM
NCI-H295R [3]
  AC50 viability: 20.9 µM
CU-ACC2 [4]
  area under concentration-response curve: 504
CU-ACC1 [5]
  area under concentration-response curve: 472
NCI-H295R [6]
  area under concentration-response curve: 445

## CCOC1=CC=CC=C1N\2C(=O)C3=C(C=CC=C3)\N=C2C(C)N4CCN(CC4)C(=O)COC5=CC=C(Cl)C=C5 (stereo not given)
CU-ACC2 [1]
  AC50 viability: 2.95 µM
CU-ACC1 [2]
  AC50 viability: 0.934 µM
NCI-H295R [3]
  AC50 viability: 5.9 µM
CU-ACC2 [4]
  area under concentration-response curve: 509
CU-ACC1 [5]
  area under concentration-response curve: 373
NCI-H295R [6]
  area under concentration-response curve: 448

## COc1ccc(CCN(C)CCCOc2ccc([S+](=O)([O-])c3c(C(C)C)c4ccccc4n3C)cc2)cc1OC
CU-ACC2 [1]
  AC50 viability: 20.9 µM
CU-ACC1 [2]
  AC50 viability: 10.5 µM
NCI-H295R [3]
  AC50 viability: 13.2 µM
CU-ACC2 [4]
  area under concentration-response curve: 565
CU-ACC1 [5]
  area under concentration-response curve: 448
NCI-H295R [6]
  area under concentration-response curve: 427

## CN(C)Cc1c(C(=O)NCCOc2ccc(C(=O)NO)cc2)oc2ccccc12
CU-ACC2 [1]
  AC50 viability: 1.48 µM
CU-ACC1 [2]
  AC50 viability: 1.48 µM
NCI-H295R [3]
  AC50 viability: 1.32 µM
CU-ACC2 [4]
  area under concentration-response curve: 425
CU-ACC1 [5]
  area under concentration-response curve: 412
NCI-H295R [6]
  area under concentration-response curve: 412

## C=CC(=O)Nc1cc2c(Nc3ccc(F)c(Cl)c3)ncnc2cc1C#CC(C)(C)N1CCN(C)CC1
CU-ACC2 [1]
  AC50 viability: 7.42 µM
CU-ACC1 [2]
  AC50 viability: 10.5 µM
NCI-H295R [3]
  AC50 viability: 7.42 µM
CU-ACC2 [4]
  area under concentration-response curve: 520
CU-ACC1 [5]
  area under concentration-response curve: 307
NCI-H295R [6]
  area under concentration-response curve: 477

## C[N]1C=NC=C1C(N)(C2=CC=C(Cl)C=C2)C3=CC\4=C(C=C3)N(C)C(=O)\C=C4C5=CC(=CC=C5)Cl (stereo not given)
CU-ACC2 [1]
  AC50 viability: 11.8 µM
CU-ACC1 [2]
  AC50 viability: 11.8 µM
NCI-H295R [3]
  AC50 viability: 6.61 µM
CU-ACC2 [4]
  area under concentration-response curve: 298
CU-ACC1 [5]
  area under concentration-response curve: 336
NCI-H295R [6]
  area under concentration-response curve: 397

## CC[S+](=O)([O-])N1CCN(c2ccc(Nc3ncc(C(N)=O)c(NC4CC4)n3)cc2)CC1
CU-ACC2 [1]
  AC50 viability: 26.3 µM
CU-ACC1 [2]
  AC50 viability: 20.9 µM
NCI-H295R [3]
  AC50 viability: 16.6 µM
CU-ACC2 [4]
  area under concentration-response curve: 561
CU-ACC1 [5]
  area under concentration-response curve: 474
NCI-H295R [6]
  area under concentration-response curve: 499

## Cc1cc(C[S+](=O)([O-])c2ccccc2)cc(OCc2ccc(CN3CCC[C@@H]3CO)cc2)c1
CU-ACC2 [1]
  AC50 viability: 20.9 µM
CU-ACC1 [2]
  AC50 viability: 14.8 µM
NCI-H295R [3]
  AC50 viability: 26.3 µM
CU-ACC2 [4]
  area under concentration-response curve: 463
CU-ACC1 [5]
  area under concentration-response curve: 428
NCI-H295R [6]
  area under concentration-response curve: 425

## CC(C)[C@]12O[C@H]1[C@@H]3O[C@@]34[C@@]5(C)CC\C6=C(COC6=O)/[C@@H]5C[C@@H]7O[C@]47[C@@H]2O
CU-ACC2 [1]
  AC50 viability: 0.059 µM
CU-ACC1 [2]
  AC50 viability: 0.0525 µM
NCI-H295R [3]
  AC50 viability: 0.295 µM
CU-ACC2 [4]
  area under concentration-response curve: 242
CU-ACC1 [5]
  area under concentration-response curve: 251
NCI-H295R [6]
  area under concentration-response curve: 274

## Nc1ccccc1NC(=O)c1ccc(CNc2nccc(-c3cccnc3)n2)cc1
CU-ACC2 [1]
  AC50 viability: 5.25 µM
CU-ACC1 [2]
  AC50 viability: 2.09 µM
NCI-H295R [3]
  AC50 viability: 2.35 µM
CU-ACC2 [4]
  area under concentration-response curve: 445
CU-ACC1 [5]
  area under concentration-response curve: 309
NCI-H295R [6]
  area under concentration-response curve: 339

## COc1cc2ncnc(Nc3ccc(F)c(Cl)c3)c2cc1NC(=O)/C=C/CN1CCCCC1
CU-ACC2 [1]
  AC50 viability: 8.33 µM
CU-ACC1 [2]
  AC50 viability: 10.5 µM
NCI-H295R [3]
  AC50 viability: 6.61 µM
CU-ACC2 [4]
  area under concentration-response curve: 493
CU-ACC1 [5]
  area under concentration-response curve: 414
NCI-H295R [6]
  area under concentration-response curve: 459

## C[S+](=O)([O-])N1CCN(Cc2cc3nc(-c4cccc5[nH]ncc45)nc(N4CCOCC4)c3s2)CC1
CU-ACC2 [1]
  AC50 viability: 16.6 µM
CU-ACC1 [2]
  AC50 viability: 0.934 µM
NCI-H295R [3]
  AC50 viability: 0.661 µM
CU-ACC2 [4]
  area under concentration-response curve: 402
CU-ACC1 [5]
  area under concentration-response curve: 420
NCI-H295R [6]
  area under concentration-response curve: 406

## COc1cccc2c(NCc3ccccc3)nc(-n3c(N)nc4ccccc43)nc12
CU-ACC2 [1]
  AC50 viability: 3.72 µM
CU-ACC1 [2]
  AC50 viability: 3.32 µM
NCI-H295R [3]
  AC50 viability: 3.32 µM
CU-ACC2 [4]
  area under concentration-response curve: 450
CU-ACC1 [5]
  area under concentration-response curve: 373
NCI-H295R [6]
  area under concentration-response curve: 402

## CC(C)C[C@H](NC(=O)[C@@H](NC(=O)c1cccc(-c2ccccc2)n1)[C@@H](C)O)B(O)O
CU-ACC2 [1]
  AC50 viability: 0.0723 µM
CU-ACC1 [2]
  AC50 viability: 0.0723 µM
NCI-H295R [3]
  AC50 viability: 0.144 µM
CU-ACC2 [4]
  area under concentration-response curve: 297
CU-ACC1 [5]
  area under concentration-response curve: 300
NCI-H295R [6]
  area under concentration-response curve: 337
